In general, IC50 refers to the midpoint of a concentration-inhibition curve.

For test [1] the following is noted: S/N=3 where stated; cited from earlier work.
How the values of test [2] were obtained: (§1) Unless and otherwise mentioned, 10 mM and pH 7.2 solution of aq. PBS buffer was used for all spectroscopic studies. All reactive Oxygen species and nitrogen species solutions of 1×10^-2 M were prepared in PBS having pH 7.2 and used with appropriate dilution. All luminescence measurements were done using λEx=550 nm with an emission slit width of 2/2 nm. For all biological studies, 0.6% DMSO in DMEM media was used.
The detection limit was calculated based on the fluorescence titration.

In test [3] the test system is RAW 264.7 cells. Put plainly: MTT assay, in vitro cytotoxicity / cell viability. As to conditions: read-out: IC50 (MTT cell viability), treated 24 hours. In general terms: Tetrazolium assays rely on reduction of a dye to a coloured formazan, in cell work by metabolically active cells.
For test [4] the following is noted: SF-1 10 μM, 2 mM HOCl, PBS-acetonitrile (9:1, v/v), pH 7.2, 37° C. As to the method:
Accordingly, all studies are carried out at physiological relevant pH […].
as §1

Turning to `CC1=CC(C)=[N+]2C1=C(CCc1[nH]c(C)cc1C)c1c(C)cc(C)n1[B-]2(F)F` [BClO], in test [1], the “detection limit for HOCl/HClO (literature)” value is reported as 0.56 nM.

With “E)-4-(2-(5,5-difluoro-1,7,9-trimethyl-10-phenyl-5H-5λ^4,6λ^4-dipyrrolo[1,2-c:2′,1′-f][1,3,2]diazaborinin-3-yl)vinyl)benzene-1,2-diol [SF-1]”, the “detection limit for HOCl” value in test [2] (aq. PBS buffer-acetonitrile (9:1, v/v), 3 s method) was 4.3 nM. Besides, in test [2] (slope 2.50×109, Sb1 3.59), the “Detection Limit for HOCl (DL=K*Sb1/S, K=3)” value amounted to 4.3 nM. Also, the “enhancement of luminescence intensity with increasing dose of HOCl” value in test [2] (λEm Max 580 nm, λExt 540 nm) is given as 20 fold. Besides, the IC50 in test [3] is greater than 150 µM. Moreover, in test [4], the “time to completion of reaction with HOCl” value is reported as no more than 15 min.

Values taken from patent US11319331B2, “Probe for selective detection of hypochlorous acid (HOCl) under physiological condition, and related methods” (Council of Scientific & Industrial Research, priority 2017, dated 2022).
